Data reported in patent US11154853B2, “Generation of data for use with antimicrobials” (GeneFluidics, Inc., priority 2017, dated 2021).
Where two headings read alike, the source gives them in different places.

Test system: E. coli
Protocol: Susceptibility cultures can be started.
(§1) Then, the Proteus automated system can add 12 μL of 1M NaOH to the 30 μL sample. […] The Proteus system can then add 8 μL of 1M HCl. Ten microliters of the result can be placed on each of 4 sensors of the 16 available on the GeneFluidics, Inc. 16X EC chip. This chip can be incubated in the Proteus machine for 11 minutes at 43° C. After completion of this incubation, the chip can be washed and dried by Proteus. Ten microliters of 0.5 U/mL anti-fluorescein horseradish peroxidase (HRP) Fab fragments (Roche; diluted in 1.0% casein in […] phosphate-buffered saline, pH 7.4) can be injected into the sensor chambers and incubated for 2 minutes at 25° C.
as §1
For instance, a Helios potentiostat from GeneFluidics, Inc. was connected to the electrodes of the sensor chips and a potential of −250 mV was applied across the electrodes for one minute. During this time, the current generated by the electrochemical reaction was measured by the potentiostat. The average current measured in the final 10 seconds of the potentiostat reading constituted the final result of the assay.

O=C(O)c1cn(C2CC2)c2cc(N3CCNCC3)c(F)cc2c1=O [ciprofloxacin]
average current signal of the four sensors (base susceptibility test) (0 minute susceptibility culture time, 0.4 μg antibiotic in 100 μL Mueller-Hinton broth, 5×10^5 CFU/mL): 30 nA
increase over the current level from base susceptibility test (60 minute susceptibility culture time): 0%
current of processed sample (60 minute susceptibility culture time, 0.4 μg antibiotic in 100 μL Mueller-Hinton broth): 30 nA
increase over the current level from base susceptibility test (90 minute susceptibility culture time): 0%
reported result (resistant / susceptible) (E. coli from patient urine sample, at the concentration of antibiotic in the culture): susceptible
